Earlier results on 1 compound are cited in patent US20150272847A1, “Skin Engaging Shaving Aid Comprising A Thermally Resilient Sensate And A TRPA1 Receptor Inhibitor” (The Gillette Company, priority 2014, published 2015).

For this data set the following is noted: compared to menthol at 2 ppm.

Turning to `CC(C)[C@@H]1CC[C@@H](C)C[C@H]1C(=O)Nc1ccc(CC#N)cc1` [N-[4-(cyanomethyl)phenyl]-(1R,2S,5R)-2-isopropyl-5-methylcyclohexanecarboxamide], the “Cooling as compared to menthol” value is “about 10 ×”.
